According to ChEMBL document CHEMBL1201862, “PubChem BioAssay data set” (2004):
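Five compound concentrations were applied to cells in 96-well plates for 48 hours; endpoints were derived by simple linear interpolation of the resulting dose-response curve. The concentration for 50% growth inhibition is given as GI50.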 The source made the active and inactive calls. Rule as the data show it: active = GI50 up to about 1.1 µM and inactive = higher.

Assays:
Test in all cases: inhibition of tumour cell growth, NCI panel, 48 h
SN12C = tested on: SN12C
PC-3 = tested on: PC-3
UO-31 = tested on: UO-31
KM12 = tested on: KM12
SK-OV-3 = tested on: SK-OV-3
HT-29 = tested on: HT-29
OVCAR-3 = tested on: OVCAR-3
U-251 = tested on: U-251
COLO 205 = tested on: COLO 205
CCRF-CEM = tested on: CCRF-CEM
NCI/ADR-RES = tested on: NCI/ADR-RES
K562 = tested on: K562
UACC-62 = tested on: UACC-62
SW-620 = tested on: SW-620
NCI-H522 = tested on: NCI-H522
RPMI-8226 = tested on: RPMI-8226
SK-MEL-2 = tested on: SK-MEL-2
IGROV-1 = tested on: IGROV-1
Hs-578T = tested on: Hs-578T
LXFL 529 = tested on: LXFL 529

Row | SMILES | GI50 (SN12C) | GI50 (PC-3) | GI50 (UO-31) | GI50 (KM12) | GI50 (SK-OV-3) | GI50 (HT-29) | GI50 (OVCAR-3) | GI50 (U-251) | GI50 (COLO 205) | GI50 (CCRF-CEM) | GI50 (NCI/ADR-RES) | GI50 (K562) | GI50 (UACC-62) | GI50 (SW-620) | GI50 (NCI-H522) | GI50 (RPMI-8226) | GI50 (SK-MEL-2) | GI50 (IGROV-1) | GI50 (Hs-578T) | GI50 (LXFL 529)
1 | COc1ccc(OC)c(C(Cc2ccnc3ccccc23)Cc2ccnc3ccccc23)c1 | > 10 µM (inactive) | 5.28 µM (inactive) | 6.68 µM (inactive) | 7.29 µM (inactive) | > 10 µM (inactive) | 6.5 µM (inactive) | > 10 µM (inactive) | > 10 µM (inactive) | 8.04 µM (inactive) | 8.57 µM (inactive) | 8.39 µM (inactive) | 4.53 µM (inactive) | > 10 µM (inactive) | > 10 µM (inactive) | 6.32 µM (inactive) | 5.18 µM (inactive) | 9.73 µM (inactive) | > 10 µM (inactive) | 8.63 µM (inactive) | 
2 | O=c1ccn2n1CCCCC2 | > 100 µM (inactive) | > 100 µM (inactive) | > 100 µM (inactive) | > 100 µM (inactive) | > 100 µM (inactive) | > 100 µM (inactive) | > 100 µM (inactive) | > 100 µM (inactive) | > 100 µM (inactive) | > 100 µM (inactive) | > 100 µM (inactive) | > 100 µM (inactive) | > 100 µM (inactive) | > 100 µM (inactive) | > 100 µM (inactive) | > 100 µM (inactive) | > 100 µM (inactive) | > 100 µM (inactive) | > 100 µM (inactive) | 
3 | Fc1ccc(C(OCCN2CCC3CCC(C2)N3Cc2cc3ccccc3[nH]2)c2ccc(F)cc2)cc1 (stereo not given) | 1.68 µM (inactive) | 1.7 µM (inactive) | 2 µM (inactive) | 1.71 µM (inactive) | 2.33 µM (inactive) | 1.08 µM (active) | 1.77 µM (inactive) | 1.87 µM (inactive) | 0.962 µM (active) | 1.71 µM (inactive) | 1.57 µM (inactive) | 1.13 µM (inactive) | 2.08 µM (inactive) | 1.56 µM (inactive) | 1.47 µM (inactive) | 1.42 µM (inactive) | 1.71 µM (inactive) | 1.38 µM (inactive) | 1.88 µM (inactive) | 
4 | Cc1cc(NS(=O)(=O)c2ccc(NC(=O)c3ccc(Cl)c4c(Nc5ccc(S(N)(=O)=O)cc5)c5ccccc5nc34)cc2)no1 | 23.1 µM (inactive) |  | 23.2 µM (inactive) | 19.6 µM (inactive) | 34.8 µM (inactive) | 22.2 µM (inactive) | 20 µM (inactive) | 11.5 µM (inactive) | 18.7 µM (inactive) |  |  | 26.9 µM (inactive) | 11.2 µM (inactive) | 17.4 µM (inactive) | 11 µM (inactive) |  |  | 21.2 µM (inactive) |  | 15.9 µM (inactive)
5 | O=C(O)CCc1coc2ccc(O)cc12 | > 100 µM (inactive) |  |  |  | > 100 µM (inactive) | > 100 µM (inactive) | > 100 µM (inactive) | > 100 µM (inactive) | > 100 µM (inactive) | > 100 µM (inactive) |  | > 100 µM (inactive) | > 100 µM (inactive) | > 100 µM (inactive) |  | > 100 µM (inactive) |  | > 100 µM (inactive) |  | > 100 µM (inactive)
6 | C[S+]([O-])c1ncc2c(n1)-c1ccccc1OC2 (stereo not given) | 47 µM (inactive) | > 100 µM (inactive) | 22.3 µM (inactive) | > 100 µM (inactive) | > 100 µM (inactive) | 61.5 µM (inactive) | 56.2 µM (inactive) | > 100 µM (inactive) | 68.1 µM (inactive) | > 100 µM (inactive) | > 100 µM (inactive) | > 100 µM (inactive) | 92.3 µM (inactive) | > 100 µM (inactive) | > 100 µM (inactive) | 81.8 µM (inactive) | > 100 µM (inactive) | 49.1 µM (inactive) | 63.4 µM (inactive) | 
7 | O=C1NCN(c2ccccc2)C12CCN(CCCN1CCN(CCOC(c3ccc(F)cc3)c3ccc(F)cc3)CC1)CC2 | 1.96 µM (inactive) | 3.05 µM (inactive) | 1.74 µM (inactive) | 2.43 µM (inactive) | 2.22 µM (inactive) | 1.26 µM (inactive) | 2.03 µM (inactive) | 1.92 µM (inactive) | 1.52 µM (inactive) | 3.31 µM (inactive) | 11 µM (inactive) | 0.91 µM (active) | 2.05 µM (inactive) | 2.61 µM (inactive) | 1.9 µM (inactive) | 2.04 µM (inactive) | 1.96 µM (inactive) | 1.98 µM (inactive) | 2.06 µM (inactive) | 
8 | C=CCNC1=C(C(=O)OCC)C(=O)CO1 | > 100 µM (inactive) |  | > 100 µM (inactive) |  |  | > 100 µM (inactive) | > 100 µM (inactive) | > 100 µM (inactive) |  | > 100 µM (inactive) |  | > 100 µM (inactive) | > 100 µM (inactive) | > 100 µM (inactive) | > 100 µM (inactive) | > 100 µM (inactive) | > 100 µM (inactive) | > 100 µM (inactive) |  | > 100 µM (inactive)
9 | C=C1c2ccccc2C(=O)c2c1c1c(C(=O)OC)c(O)ccc1n2Cc1ccccc1 | 0.312 µM (active) | 0.437 µM (active) | 0.512 µM (active) | 0.459 µM (active) | 0.346 µM (active) | 0.163 µM (active) | 0.151 µM (active) | 0.333 µM (active) | 1.97 µM (inactive) | 0.203 µM (active) | 0.235 µM (active) | 0.323 µM (active) | 0.284 µM (active) | 0.342 µM (active) | 0.237 µM (active) | 0.175 µM (active) | 0.817 µM (active) | 0.234 µM (active) | 0.297 µM (active) | 
10 | CN(C)c1ccc(/C=C(/NC(=O)c2ccccc2)C(=O)Nc2ccccc2C(=O)O)cc1 | > 100 µM (inactive) | > 100 µM (inactive) | > 100 µM (inactive) | > 100 µM (inactive) | > 100 µM (inactive) | > 100 µM (inactive) | > 100 µM (inactive) | > 100 µM (inactive) | > 100 µM (inactive) | > 100 µM (inactive) | > 100 µM (inactive) | > 100 µM (inactive) | > 100 µM (inactive) | > 100 µM (inactive) | > 100 µM (inactive) | > 100 µM (inactive) | > 100 µM (inactive) | > 100 µM (inactive) | > 100 µM (inactive) | 
11 | C=CCNC(=S)N1CC(C)C(=O)Nc2cc(Cl)ccc21 (stereo not given) | > 100 µM (inactive) |  | > 100 µM (inactive) | > 100 µM (inactive) | > 100 µM (inactive) | > 100 µM (inactive) |  | > 100 µM (inactive) | > 100 µM (inactive) |  |  | > 100 µM (inactive) | > 100 µM (inactive) |  | > 100 µM (inactive) | > 100 µM (inactive) | > 100 µM (inactive) | > 100 µM (inactive) |  | > 100 µM (inactive)
12 | CCCCCCc1cc2cc(-c3cn4ccsc4n3)c(=O)oc2cc1O | > 100 µM (inactive) | > 100 µM (inactive) | > 100 µM (inactive) | > 100 µM (inactive) | > 100 µM (inactive) | > 100 µM (inactive) | > 77.1 µM (inactive) | 45.6 µM (inactive) | > 100 µM (inactive) | > 68.5 µM (inactive) | > 100 µM (inactive) | > 75.2 µM (inactive) | 19.1 µM (inactive) | > 79.6 µM (inactive) | 29.2 µM (inactive) | 98.9 µM (inactive) | > 100 µM (inactive) | > 100 µM (inactive) | 20.4 µM (inactive) | 
13 | COc1cc2nc(-c3cccs3)nc(Nc3cccc(Cl)c3)c2cc1OC | > 100 µM (inactive) | 21.1 µM (inactive) | > 100 µM (inactive) | 43.2 µM (inactive) | 48.1 µM (inactive) | > 100 µM (inactive) | 52.8 µM (inactive) | 35.9 µM (inactive) | > 100 µM (inactive) | 34 µM (inactive) | 48.2 µM (inactive) | > 100 µM (inactive) | > 100 µM (inactive) | > 100 µM (inactive) | 64.6 µM (inactive) | 51.9 µM (inactive) | > 100 µM (inactive) | 61.1 µM (inactive) | 31.6 µM (inactive) | 
14 | C#CCSc1cnc2ccccc2c1Sc1c[nH]c2ccccc2c1=O | 12.8 µM (inactive) | 17.6 µM (inactive) | 2.14 µM (inactive) | 21.1 µM (inactive) | 30.3 µM (inactive) | 21.2 µM (inactive) | 23.4 µM (inactive) | 15 µM (inactive) | 24 µM (inactive) | > 100 µM (inactive) | 33 µM (inactive) | 9.35 µM (inactive) | 17.1 µM (inactive) | 24.8 µM (inactive) | 6.58 µM (inactive) | 4.2 µM (inactive) | 19.1 µM (inactive) | 3.29 µM (inactive) | 48.2 µM (inactive) | 
15 | c1ccc(COC2(OCc3ccccc3)CC3OC2C2NN=NC32)cc1 (stereo not given) | > 10 µM (inactive) |  | 29.7 µM (inactive) | 28.7 µM (inactive) | > 100 µM (inactive) | 20.8 µM (inactive) | 18.3 µM (inactive) | 18.1 µM (inactive) | 37.7 µM (inactive) | 11.3 µM (inactive) |  | 15.6 µM (inactive) | 21.3 µM (inactive) | 12.5 µM (inactive) |  | 13.7 µM (inactive) | > 10 µM (inactive) | 28.6 µM (inactive) |  | 15.3 µM (inactive)
16 | O=c1cc(N2CCOCC2)oc2c(-c3ccccc3)cccc12 [LY-294002] | 5.36 µM (inactive) | 2.34 µM (inactive) | 15.8 µM (inactive) | 12.1 µM (inactive) | 14.2 µM (inactive) | 6.25 µM (inactive) | 7.16 µM (inactive) | 19.5 µM (inactive) | 13.5 µM (inactive) | 39.1 µM (inactive) | 4.76 µM (inactive) | 14.2 µM (inactive) | 3.79 µM (inactive) | 21.7 µM (inactive) | 2.21 µM (inactive) | 2.96 µM (inactive) | 9.93 µM (inactive) | 2.49 µM (inactive) | 1.9 µM (inactive) | 
